PubChem BioAssay (NCI)
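How tested: cells in 96-well plates exposed to compound for 48 hours at five concentrations. GI50 is the concentration that inhibits growth by half. The concentration for full growth arrest is given as TGI.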

Experiments:
Assay in all cases: NCI-60 cell line screen, 48 h
U251 CNS = test system: U251 CNS
CCRF-CEM leukemia = test system: CCRF-CEM leukemia
ACHN renal = test system: ACHN renal
M14 melanoma = test system: M14 melanoma
SK-MEL-5 melanoma = test system: SK-MEL-5 melanoma
NCI-H23 lung = test system: NCI-H23 lung
MDA-MB-435 = test system: MDA-MB-435
UACC-257 melanoma = test system: UACC-257 melanoma

Row | SMILES | GI50 (U251 CNS) | TGI (U251 CNS) | GI50 (CCRF-CEM leukemia) | TGI (CCRF-CEM leukemia) | GI50 (ACHN renal) | TGI (ACHN renal) | GI50 (M14 melanoma) | TGI (M14 melanoma) | TGI (SK-MEL-5 melanoma) | TGI (NCI-H23 lung) | TGI (MDA-MB-435) | TGI (UACC-257 melanoma)
1 | COc1cc2nc(-c3ccc(Cl)cc3)cc(OCCCN3CCOCC3)c2cc1OC | 1.92 µM | > 100 µM | 3.35 µM | > 100 µM | 3.64 µM | > 100 µM | 0.545 µM | 2.7 µM | – | – | – | –
2 | NCCN1CCCCCc2ccccc21 | – | > 10 µM | – | > 10 µM | – | > 10 µM | – | – | > 10 µM | > 10 µM | > 10 µM | > 10 µM
3 | C[n+]1cc2cc(O)c(O)cc2c2ccc3cc(O)c(O)cc3c21 | – | 9.91 µM | – | 6.17 µM | – | > 100 µM | – | > 100 µM | > 54.8 µM | 18.3 µM | > 100 µM | > 100 µM
4 | CCOC1C=CC(=O)C(CO)O1 (centres undefined) | – | 27.9 µM | – | 6.07 µM | – | 24.1 µM | – | 31.8 µM | 37.1 µM | 27.6 µM | 25.6 µM | 19.9 µM
5 | CC(C)NC(=O)OCc1c(COC(=O)NC(C)C)n(C)c2c1ccc1sccc12 | – | > 60.8 µM | – | > 100 µM | – | > 63.8 µM | – | 36.7 µM | 26.3 µM | 29.3 µM | 35.1 µM | 39.5 µM
6 | c1ccc2c(c1)SCCCS2 | – | > 100 µM | – | > 100 µM | – | – | – | > 100 µM | > 100 µM | > 100 µM | > 100 µM | > 100 µM
7 | Cc1nc2ccc(Cl)cc2c(-n2ccnc2)c1CCn1ccnc1 | – | > 100 µM | – | 69.3 µM | – | 83.6 µM | – | > 100 µM | 46.4 µM | > 100 µM | > 100 µM | 61 µM
8 | COC(=O)/C=C(/C=C1/C(C#N)=C(N)N(c2ccc(Cl)cc2)C1(C)/C(=C\C(=O)OC)C(=O)OC)C(=O)OC (centres undefined) | – | 60.2 µM | – | > 100 µM | – | 76.8 µM | – | 39.1 µM | 29.4 µM | 40.5 µM | 41 µM | 35.8 µM
9 | CN(C)CCn1c(=O)c2ccc(NCCCN(C)CCCNc3ccc4c(=O)n(CCN(C)C)c(=O)n5c6ccc(O)cc6c(=O)c3c45)c3c(=O)c4cc(O)ccc4n(c1=O)c23 | – | 0.3 µM | – | 0.13 µM | – | 0.726 µM | – | 0.805 µM | 0.171 µM | 0.226 µM | 0.18 µM | 1.23 µM
10 | CC(C)Oc1cccc(N2C(n3ccnc3)=Nc3ccncc3S2(=O)=O)c1 | – | 28.8 µM | – | – | – | 21.6 µM | – | 28.2 µM | 26.3 µM | 24.9 µM | 32.7 µM | 32 µM
11 | O=c1[nH]c(NCc2ccncc2)nc2nc[nH]c12 | – | > 100 µM | – | > 100 µM | – | > 100 µM | – | > 100 µM | > 100 µM | > 100 µM | > 100 µM | > 100 µM
12 | CC1(C)CC(=O)C2=C(C1)C(c1ccccc1Cl)C1C(=O)CC(C)(C)CC1(O)O2 (centres undefined) | – | > 100 µM | – | > 94.8 µM | – | > 100 µM | – | > 100 µM | > 100 µM | > 100 µM | > 95.8 µM | > 95.9 µM
13 | O=CC(I)=C(c1ccccc1)c1ccccc1 | – | 30.2 µM | – | > 69.9 µM | – | 38.1 µM | – | 35.2 µM | 31.9 µM | 46.9 µM | 31.4 µM | 42.3 µM
14 | [N-]=[N+]=CC(=O)C1CCCN1C(=O)c1ccccc1 (centres undefined) | – | > 10 µM | – | > 10 µM | – | > 10 µM | – | > 10 µM | > 10 µM | > 10 µM | > 10 µM | > 10 µM
15 | COC(=O)[C@]1(C)CCC[C@@]2(C)C1CC[C@]13C=C(C(C)C)[C@H](CC21)CC3(Cl)C#N (some centres undefined) | – | 49.4 µM | – | 60.6 µM | – | > 100 µM | – | > 100 µM | > 100 µM | > 100 µM | > 100 µM | > 100 µM
16 | CCOC(=O)CSc1nc(N)c2c(-c3ccccc3)c3c(nc2n1)CCCC3 | – | > 100 µM | – | > 100 µM | – | > 100 µM | – | > 100 µM | > 100 µM | > 100 µM | > 100 µM | > 100 µM
17 | Clc1cccc(-c2sc(-c3cccs3)cc2Cc2cccs2)c1 | – | – | – | > 10 µM | – | > 10 µM | – | > 10 µM | > 10 µM | > 10 µM | > 10 µM | > 10 µM
18 | S=C(Cc1ccc2c(c1)Sc1ccccc1O2)N1CCOCC1 | – | > 100 µM | – | – | – | > 100 µM | – | > 100 µM | – | > 100 µM | > 100 µM | > 100 µM
19 | COC(=O)CNC(=O)C(CSC(=O)OCC1c2ccccc2-c2ccccc21)NC(=O)CCC(NC(=O)OCC1c2ccccc2-c2ccccc21)C(=O)OC (centres undefined) | – | – | – | 38.7 µM | – | > 100 µM | – | 58.9 µM | > 100 µM | 37 µM | 67.4 µM | > 100 µM
20 | Cn1nc(-c2ccc(S(=O)(=O)/N=C(\NN)Nc3ccc(Cl)cc3)s2)cc1C(F)(F)F | – | 28.3 µM | – | – | – | 33.8 µM | – | 31.5 µM | 35.9 µM | 40.9 µM | – | 34 µM
21 | O=c1c(F)cn2c(=O)n1CCCCCCCn1c(=O)c(F)cn(c1=O)CCCCCCC2 | – | > 100 µM | – | > 100 µM | – | > 100 µM | – | > 100 µM | > 100 µM | > 100 µM | > 100 µM | > 100 µM
22 | O=C(CC(NC(=O)C(F)(F)F)C(=O)O)OCc1ccccc1 (centres undefined) | – | > 100 µM | – | > 100 µM | – | > 100 µM | – | > 100 µM | > 100 µM | > 100 µM | > 100 µM | > 100 µM
23 | Cn1c2ccccc2c2ccc3c(c21)C(=O)c1ccc2c4ccccc4n(C)c2c1C3=O | – | > 100 µM | – | > 100 µM | – | > 100 µM | – | > 100 µM | > 100 µM | > 100 µM | > 100 µM | > 100 µM
24 | COc1ccc2ccc3oc(=O)c(C)cc3c2c1 | – | > 100 µM | – | > 100 µM | – | > 100 µM | – | > 100 µM | > 100 µM | > 100 µM | > 100 µM | > 100 µM
25 | Cc1ccc2cccc(-c3cccc4ccccc34)c2n1 | – | 29.9 µM | – | 50 µM | – | > 100 µM | – | 55.6 µM | 32.2 µM | > 100 µM | 7.58 µM | > 100 µM
26 | Cc1ccccc1-c1nc2c(N)nc(N)nc2nc1N | – | > 100 µM | – | > 100 µM | – | > 100 µM | – | > 100 µM | > 100 µM | > 100 µM | > 100 µM | > 100 µM
